In patent US20020045669A1, “Anti-arrhythmic composition and methods of treatment” (priority 2000, published 2002):
“Also recorded” adds a separate entry of the source.

What was measured:
[1] = system: DOCA/saline pre-treated rats with isoproterenol-induced arrhythmia; test: Arrhythmic reversal studies (established isoproterenol arrhythmia); format: in vivo, rat; details: i.v. bolus at one-half of the effective s.c. dose, five minutes after isoproterenol
Protocol: The animals were implanted with a 25 mg pellet of DOCA and maintained on the 1% saline as their drinking fluid as discussed above. The animals were anesthetized with Avertin and prepared for the recording of blood pressure and the EKG. In addition, the animal's left jugular vein was also cannulated with PE-50 tubing. The tubings were filled with saline and exteriorized dorsally between the animal's shoulders. Isoproterenol was administered s.c. at a dose of 150 μg/kg and an arrhythmia was allowed to develop for five minutes. […] Continuous blood pressure, heart rate and EKG readings were obtained. Additional Avertin was given as needed to maintain anesthesia. The hearts of the animals were perfused with buffered formalin immediately after the onset of ventricular fibrillation or one hour after the administration of isoproterenol.
(§1) Two kinds of anti-arrhythmic experiments were carried out, both prophylaxis and reversal studies. DOCA-treated animals were either first given the test compounds s.c. followed twenty minutes later by isoproterenol (prevention studies) or isoproterenol followed by the test compound given intravenously after five minutes (reversal studies). The time frames were chosen based on two issues: previous experience with the pharmacokinetics of polyamine analogues and the time required for isoproterenol to induce cardiac abnormalities and death in DOCA-treated rodents.

[2] = system: DOCA/saline pre-treated rats challenged with isoproterenol; test: Prevention of isoproterenol-induced arrhythmia and mortality in DOCA/saline pre-treated rats; format: in vivo, rat; details: for % SURVIVAL / ARRHYTHMIA (number of animals): 20 min before isoproterenol 150 μg/kg s.c.
Protocol: Briefly, rats were anesthetized with sodium pentobarbital (55 mg/kg. i.p.), and a 25 mg pellet of desoxycorticosterone acetate (DOCA) was implanted s.c. in the axillary region. The rats were allowed to recover from the anesthetic and returned to their home cages. The animals were given commercial rat chow and a 1% solution of saline as their drinking fluid ad libitum. The animals were maintained on this regimen for approximately thirty days.
Twenty minutes later, the rats were challenged with a single s.c. dose of isoproterenol, 150 μg/kg. The animals were closely monitored for one hour and any obvious arrhythmic episodes or mortalities were recorded.
as §1

[3] = system: mice exposed to deep chloroform anesthesia; test: Chloroform anesthesia-induced cardiac arrhythmia (Lawson procedure); format: in vivo; details: 100 mg/kg i.p., thirty minutes before chloroform; observed 15 minutes; <2 of three = significant protection
Protocol: In this procedure [Lawson, J. Pharmacol. Exer. Therap., Vol. 160, pages 22-31 (1968)], the test substance [diethylhomospermine (DEHSPM)] is administered i.p. (100 mg/kg) to a group of three mice thirty minutes before exposure to deep chloroform anesthesia and observed during the ensuing 15-minute period.

normotensive rats = details: earlier results; cited from earlier work
[4] = system: DOCA/saline pre-treated rats; test: Evaluation of blood pressure, heart rate and EKG in DOCA/saline rats; format: in vivo, rat; details: continuous monitoring, compound given s.c.
Protocol: Blood pressure and heart rate parameters, as well as an EKG, were evaluated for compounds displaying anti-arrhythmic properties. The animals were implanted with DOCA and maintained on 1% saline as their drinking fluid as discussed above. The animals were anesthetized with Avertin (tribromoethanol, 2.5%), 1 ml/100 g given i.p. and prepared for the recording of blood pressure and the EKG. To allow for the direct measurement of blood pressure, the animals's left carotid artery was cannulated with PE-50 tubing. The tubing was filled with saline and exteriorized dorsally between the animal's shoulders.
After the surgery was completed, the catheter in the carotid artery was connected to a blood pressure transducer (ADInstruments, Inc., Milford, Mass.). To allow for the recording of the EKG, 22 gauge needles were placed s.c. at the rat's left shoulder, right shoulder and left leg. The needles were then attached via alligator clips to a MacLab Bio Amplifier (ADInstruments, Inc., Milford, Mass.). […] A baseline blood pressure, heart rate and EKG were obtained, and the compound under investigation was administered s.c. Twenty minutes later, the animals were challenged with a single dose of isoproterenol, 150 μg/kg s.c. Continuous blood pressure, heart rate and EKG readings were obtained. […]

[5] = DOCA/isoproterenol-treated rats, prophylaxis

Row | Compound | effect on survival / activity in the model (in words) [2, 5] | % SURVIVAL ([2]; dose 115 μmol/kg s.c.) [%] | ARRHYTHMIA (number of animals) ([2]; dose 115 μmol/kg s.c.) | anti-arrhythmic properties (in words) [2, 5] | other results
1 | CC(C)NCC(O)COc1cccc2ccccc12 (racemic) [Propranolol, d,l-propranolol] | – | – | – | – | EKG pattern after treatment in reversal experiment [1]: reverted to a more normal pattern; evidence of ischemia in EKG in reversal experiment [1]: some evidence of ischemia; survival in reversal experiment [1]: survived
2 | CCNCCCCCCCCCNCC [DE(9), C2H5—NH—(CH2)9—NH—C2H5] | no activity | 0 | 5 | – | –
3 | CCNCCCCNCCCCNCCCCNCC [DEHSPM(4,4,4), diethylhomospermine] | none of the three polyamine anti-metabolites tested in this model had any effects on the survival | 0 | 5 | – | animals exhibiting cardiac arrhythmia (of three mice) [3]: one; effect on blood pressure (normotensive rats): lower blood pressure
4 | CCNCCCNCCCNCCCNCC [DENSPM(3,3,3), diethylnorspermine] | none of the three polyamine anti-metabolites tested in this model had any effects on the survival | – | – | – | % SURVIVAL ([2]; dose 231 μmol/kg s.c.): 0%; ARRHYTHMIA (number of animals) ([2]; dose 231 μmol/kg s.c.): 5; effect on blood pressure (normotensive rats): lower blood pressure
5 | CCNCCCNCCCCNCCCNCC [DESPM(3,4,3), diethylspermine] | none of the three polyamine anti-metabolites tested in this model had any effects on the survival | 0 | 5 | – | –
6 | FC(F)(F)CNCCCNCCCCNCCCNCC(F)(F)F [FDESPM, Di-β,β,β-trifluoroethylspermine] | – | 40 | 7 | some anti-arrhythmic prophylactic behavior | animals surviving ([2]; DOCA/isoproterenol-treated rats, prophylaxis, dose not given): 40%
7 | C(CNC1CCNCC1)CNC1CCNCC1 [PIP(3,3,3)] | nor was it found to be active in this model | 0 | 5 | – | –
8 | c1cc(NCCCNc2ccncc2)ccn1 [PYR(3,3,3)] | – | 100 | 2 | presented with anti-arrhythmic properties; also recorded: performed best | % SURVIVAL ([2]; dose 14 μmol/kg s.c.): 40%; ARRHYTHMIA (number of animals) ([2]; dose 14 μmol/kg s.c.): 5; % SURVIVAL ([2]; dose 28 μmol/kg s.c.): 40%; ARRHYTHMIA (number of animals) ([2]; dose 28 μmol/kg s.c.): 5; % SURVIVAL ([2]; dose 59 μmol/kg s.c.): 60%; ARRHYTHMIA (number of animals) ([2]; dose 59 μmol/kg s.c.): 4; EKG pattern after treatment in reversal experiment [1]: reverted to a normal appearance; evidence of ischemia in EKG in reversal experiment [1]: little to no evidence of ischemia; effects on blood pressure and heart rate [4]: No appreciable effects on blood pressure and heart rate
9 | c1cc(NCCCCNc2ccncc2)ccn1 [PYR(3,4,3)] | – | 60 | 2 | presented with anti-arrhythmic properties | % SURVIVAL ([2]; dose 59 μmol/kg s.c.): 60%; ARRHYTHMIA (number of animals) ([2]; dose 59 μmol/kg s.c.): 2; % SURVIVAL ([2]; dose 231 μmol/kg s.c.): 80%; ARRHYTHMIA (number of animals) ([2]; dose 231 μmol/kg s.c.): 2
10 | c1cc(CNCCCCNCc2ccncc2)ccn1 [PYR(4,4,4)] | – | 0 | 5 | presented with anti-arrhythmic properties | % SURVIVAL ([2]; dose 231 μmol/kg s.c.): 40%; ARRHYTHMIA (number of animals) ([2]; dose 231 μmol/kg s.c.): 2
11 | NCCCCN [Putrescine(4), Putrescine, reference compound] | no effect on survival | 0 | 5 | – | % SURVIVAL ([2]; dose 1240 μmol/kg s.c.): 0%; ARRHYTHMIA (number of animals) ([2]; dose 1240 μmol/kg s.c.): 5; % SURVIVAL ([2]; dose 1861 μmol/kg s.c.): 0%; ARRHYTHMIA (number of animals) ([2]; dose 1861 μmol/kg s.c.): 5
